Values after ≈ are worked out from the molar mass of the structure shown.
Assays:
Format in all cases: functional
Pseudomonas aeruginosa [1] = experiment: Antimicrobial activity against Pseudomonas aeruginosa clinical isolates assessed as resistant isolates by agar dilution method
Pseudomonas aeruginosa [2] = experiment: Antimicrobial activity against Pseudomonas aeruginosa blood isolate 4667 containing PFGE clone A expressing beta-lactamase IMP-15 by broth microdilution method
Pseudomonas aeruginosa [3] = experiment: Antimicrobial activity against Pseudomonas aeruginosa blood isolate 4677 containing PFGE clone A expressing beta-lactamase IMP-15 by broth microdilution method
Pseudomonas aeruginosa [4] = experiment: Antimicrobial activity against Pseudomonas aeruginosa secretion isolate 4682-1 containing PFGE clone A expressing beta-lactamase IMP-15 by broth microdilution method
Pseudomonas aeruginosa [5] = experiment: Antimicrobial activity against Pseudomonas aeruginosa catheter isolate 4696 containing PFGE clone A expressing beta-lactamase IMP-15 by broth microdilution method
Pseudomonas aeruginosa [6] = experiment: Antimicrobial activity against Pseudomonas aeruginosa urine isolate 4698 containing PFGE clone A expressing beta-lactamase IMP-15 by broth microdilution method
Pseudomonas aeruginosa [7] = experiment: Antimicrobial activity against Pseudomonas aeruginosa urine isolate 4706 containing PFGE clone A expressing beta-lactamase IMP-15 by broth microdilution method
Pseudomonas aeruginosa [8] = experiment: Antimicrobial activity against Pseudomonas aeruginosa secretion isolate 4658 containing PFGE clone A1 expressing beta-lactamase IMP-15 by broth microdilution method
Pseudomonas aeruginosa [9] = experiment: Antimicrobial activity against Pseudomonas aeruginosa pleural fluid isolate 4679 containing PFGE clone A1 expressing beta-lactamase IMP-15 by broth microdilution method
Pseudomonas aeruginosa [10] = experiment: Antimicrobial activity against Pseudomonas aeruginosa secretion isolate 4688 containing PFGE clone A1 expressing beta-lactamase IMP-15 by broth microdilution method
Pseudomonas aeruginosa [11] = experiment: Antimicrobial activity against Pseudomonas aeruginosa secretion isolate 4703 containing PFGE clone A1 expressing beta-lactamase IMP-15 by broth microdilution method
Pseudomonas aeruginosa [12] = experiment: Antimicrobial activity against Pseudomonas aeruginosa blood isolate 4659 containing PFGE clone A2 expressing beta-lactamase IMP-15 by broth microdilution method
Pseudomonas aeruginosa [13] = experiment: Antimicrobial activity against Pseudomonas aeruginosa catheter isolate 4680 containing PFGE clone A2 expressing beta-lactamase IMP-15 by broth microdilution method
Pseudomonas aeruginosa [14] = experiment: Antimicrobial activity against Pseudomonas aeruginosa urine isolate 4663 expressing beta-lactamase IMP-15 by broth microdilution method
Pseudomonas aeruginosa [15] = experiment: Antimicrobial activity against Pseudomonas aeruginosa secretion isolate 4682-1 containing PFGE clone A expressing beta-lactamase IMP-15 by broth microdilution method in presence of beta-lactamase inhibitor Tazobactam
Pseudomonas aeruginosa [16] = experiment: Antimicrobial activity against Pseudomonas aeruginosa catheter isolate 4696 containing PFGE clone A expressing beta-lactamase IMP-15 by broth microdilution method in presence of beta-lactamase inhibitor Tazobactam
Pseudomonas aeruginosa [17] = experiment: Antimicrobial activity against Pseudomonas aeruginosa urine isolate 4698 containing PFGE clone A expressing beta-lactamase IMP-15 by broth microdilution method in presence of beta-lactamase inhibitor Tazobactam; conditions: isolate 4698, Urine
Pseudomonas aeruginosa [18] = experiment: Antimicrobial activity against Pseudomonas aeruginosa urine isolate 4706 containing PFGE clone A expressing beta-lactamase IMP-15 by broth microdilution method in presence of beta-lactamase inhibitor Tazobactam; conditions: isolate 4706, Urine
Pseudomonas aeruginosa [19] = experiment: Antimicrobial activity against Pseudomonas aeruginosa secretion isolate 4658 containing PFGE clone A1 expressing beta-lactamase IMP-15 by broth microdilution method in presence of beta-lactamase inhibitor Tazobactam
Pseudomonas aeruginosa [20] = experiment: Antimicrobial activity against Pseudomonas aeruginosa pleural fluid isolate 4679 containing PFGE clone A1 expressing beta-lactamase IMP-15 by broth microdilution method in presence of beta-lactamase inhibitor Tazobactam; conditions: isolate 4679, Pleural fluid
Pseudomonas aeruginosa [21] = experiment: Antimicrobial activity against Pseudomonas aeruginosa secretion isolate 4688 containing PFGE clone A1 expressing beta-lactamase IMP-15 by broth microdilution method in presence of beta-lactamase inhibitor Tazobactam
Pseudomonas aeruginosa [22] = experiment: Antimicrobial activity against Pseudomonas aeruginosa secretion isolate 4703 containing PFGE clone A1 expressing beta-lactamase IMP-15 by broth microdilution method in presence of beta-lactamase inhibitor Tazobactam
Pseudomonas aeruginosa [23] = experiment: Antimicrobial activity against Pseudomonas aeruginosa blood isolate 4659 containing PFGE clone A2 expressing beta-lactamase IMP-15 by broth microdilution method in presence of beta-lactamase inhibitor Tazobactam
Pseudomonas aeruginosa [24] = experiment: Antimicrobial activity against Pseudomonas aeruginosa catheter isolate 4680 containing PFGE clone A2 expressing beta-lactamase IMP-15 by broth microdilution method in presence of beta-lactamase inhibitor Tazobactam
Pseudomonas aeruginosa [25] = experiment: Antimicrobial activity against Pseudomonas aeruginosa urine isolate 4663 expressing beta-lactamase IMP-15 by broth microdilution method in presence of beta-lactamase inhibitor Tazobactam; conditions: isolate 4663, Urine
Pseudomonas aeruginosa [26] = experiment: Antimicrobial activity against Pseudomonas aeruginosa clinical isolates assessed as resistant isolates by agar dilution method in presence of beta-lactamase inhibitor Tazobactam
Pseudomonas aeruginosa [27] = experiment: Antimicrobial activity against Pseudomonas aeruginosa blood isolate 4667 containing PFGE clone A expressing beta-lactamase IMP-15 by broth microdilution method in presence of beta-lactamase inhibitor Tazobactam
Pseudomonas aeruginosa [28] = experiment: Antimicrobial activity against Pseudomonas aeruginosa blood isolate 4677 containing PFGE clone A expressing beta-lactamase IMP-15 by broth microdilution method in presence of beta-lactamase inhibitor Tazobactam

Row | Compound | Activity (Pseudomonas aeruginosa [1]) | MIC (Pseudomonas aeruginosa [2]) | MIC (Pseudomonas aeruginosa [3]) | MIC (Pseudomonas aeruginosa [4]) | MIC (Pseudomonas aeruginosa [5]) | MIC (Pseudomonas aeruginosa [6]; isolate 4698, Urine) | MIC (Pseudomonas aeruginosa [7]; isolate 4706, Urine) | MIC (Pseudomonas aeruginosa [8]) | MIC (Pseudomonas aeruginosa [9]) | MIC (Pseudomonas aeruginosa [10]) | MIC (Pseudomonas aeruginosa [11]) | MIC (Pseudomonas aeruginosa [12]) | MIC (Pseudomonas aeruginosa [13]) | MIC (Pseudomonas aeruginosa [14]; isolate 4663, Urine) | also measured
1 | NCC[C@H](O)C(=O)N[C@@H]1C[C@H](N)[C@@H](O[C@H]2O[C@H](CN)[C@@H](O)[C@H](O)[C@H]2O)[C@H](O)[C@H]1O[C@H]1O[C@H](CO)[C@@H](O)[C@H](N)[C@H]1O [AMIKACIN] | 51% | > 128 mg/L | > 128 mg/L | > 128 mg/L | > 128 mg/L | > 128 mg/L | 64 mg/L (≈ 109 µM) | > 128 mg/L | > 128 mg/L | > 128 mg/L | 128 mg/L (≈ 219 µM) | > 128 mg/L | > 128 mg/L | 4 mg/L (≈ 6.83 µM) | –
2 | C[C@H]1[C@H](NC(=O)/C(=N\OC(C)(C)C(=O)O)c2csc(N)n2)C(=O)N1S(=O)(=O)O [AZTREONAM] | – | – | – | – | – | – | – | – | – | – | – | – | – | 8 mg/L (≈ 18.4 µM) | –
3 | CC(C)(O/N=C(\C(=O)N[C@@H]1C(=O)N2C(C(=O)[O-])=C(C[n+]3ccccc3)CS[C@H]12)c1csc(N)n1)C(=O)O [CEFTAZIDIME] | 61% | > 128 mg/L | > 128 mg/L | > 128 mg/L | > 128 mg/L | > 128 mg/L | > 128 mg/L | > 128 mg/L | > 128 mg/L | > 128 mg/L | > 128 mg/L | > 128 mg/L | > 128 mg/L | > 128 mg/L | –
4 | C[C@@H](O)[C@H]1C(=O)N2C(C(=O)O)=C(SCCNC=N)C[C@H]12 [IMIPENEM ANHYDROUS] | 100% | > 128 mg/L | > 128 mg/L | 128 mg/L (≈ 428 µM) | 128 mg/L (≈ 428 µM) | > 128 mg/L | 32 mg/L (≈ 107 µM) | 128 mg/L (≈ 428 µM) | 128 mg/L (≈ 428 µM) | > 128 mg/L | > 128 mg/L | > 128 mg/L | 128 mg/L (≈ 428 µM) | 32 mg/L (≈ 107 µM) | –
5 | C[C@@H](O)[C@H]1C(=O)N2C(C(=O)O)=C(S[C@@H]3CN[C@H](C(=O)N(C)C)C3)[C@H](C)[C@H]12 [MEROPENEM] | 87% | 128 mg/L (≈ 334 µM) | 128 mg/L (≈ 334 µM) | 128 mg/L (≈ 334 µM) | 128 mg/L (≈ 334 µM) | 128 mg/L (≈ 334 µM) | 128 mg/L (≈ 334 µM) | 128 mg/L (≈ 334 µM) | 128 mg/L (≈ 334 µM) | 128 mg/L (≈ 334 µM) | 128 mg/L (≈ 334 µM) | 128 mg/L (≈ 334 µM) | 128 mg/L (≈ 334 µM) | > 128 mg/L | –
6 | CCN1CCN(C(=O)N[C@@H](C(=O)N[C@@H]2C(=O)N3[C@@H]2SC(C)(C)[C@@H]3C(=O)O)c2ccccc2)C(=O)C1=O [PIPERACILLIN] | 19% | 64 mg/L (≈ 124 µM) | 64 mg/L (≈ 124 µM) | 64 mg/L (≈ 124 µM) | 64 mg/L (≈ 124 µM) | 64 mg/L (≈ 124 µM) | 64 mg/L (≈ 124 µM) | 64 mg/L (≈ 124 µM) | 64 mg/L (≈ 124 µM) | 64 mg/L (≈ 124 µM) | 64 mg/L (≈ 124 µM) | 64 mg/L (≈ 124 µM) | 64 mg/L (≈ 124 µM) | 64 mg/L (≈ 124 µM) | MIC (Pseudomonas aeruginosa [15]): 64 mg/L; MIC (Pseudomonas aeruginosa [16]): 64 mg/L; MIC (Pseudomonas aeruginosa [17]): 64 mg/L; MIC (Pseudomonas aeruginosa [18]): 64 mg/L; MIC (Pseudomonas aeruginosa [19]): 64 mg/L; MIC (Pseudomonas aeruginosa [20]): 64 mg/L; MIC (Pseudomonas aeruginosa [21]): 64 mg/L; MIC (Pseudomonas aeruginosa [22]): 64 mg/L; MIC (Pseudomonas aeruginosa [23]): 64 mg/L; MIC (Pseudomonas aeruginosa [24]): 64 mg/L; MIC (Pseudomonas aeruginosa [25]): 64 mg/L; Activity (Pseudomonas aeruginosa [26]): 14%; MIC (Pseudomonas aeruginosa [27]): 64 mg/L; MIC (Pseudomonas aeruginosa [28]): 64 mg/L
7 | GENTAMICIN | 54% | 128 mg/L | > 128 mg/L | > 128 mg/L | > 128 mg/L | – | – | 128 mg/L | 128 mg/L | > 128 mg/L | > 128 mg/L | > 128 mg/L | 128 mg/L | – | MIC (Pseudomonas aeruginosa [6]): > 128 mg/L; MIC (Pseudomonas aeruginosa [7]): > 128 mg/L; MIC (Pseudomonas aeruginosa [14]): 128 mg/L
